Measured values: paper PMC6979384, “Characterization of the plant homeodomain (PHD) reader family for their histone tail interactions” (Epigenetics & Chromatin, 2020)

Key:
Assay in all cases: Histone peptide microarray
Assay type in all cases: binding, human
AIRE (PP) = conditions: GST-tagged AIRE (PP); for Array Heatmap signal (histone peptide microarray): sheet Array Heatmap, each array performed twice, total n = 4
Procedure, shortened: (§1)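 Recombinant GST-PHD protein at 0.5 μM; 293-member modified histone peptide array; signals averaged from four repeats ± SD.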

BAZ2B = conditions: GST-tagged BAZ2B; for Array Heatmap signal (histone peptide microarray): sheet Array Heatmap, each array performed twice, total n = 4
Procedure, shortened: as §1

BPTF (PB) = conditions: GST-tagged BPTF (PB = PHD + Bromodomain); for Array Heatmap signal (histone peptide microarray): sheet Array Heatmap, each array performed twice, total n = 4
Procedure, shortened: as §1

CHD4 (PPCC) = conditions: GST-tagged CHD4 (PPCC = Dual PHD + Dual Chromodomain); for Array Heatmap signal (histone peptide microarray): sheet Array Heatmap, each array performed twice, total n = 4
Procedure, shortened: as §1

CHD5 (PCC) = conditions: GST-tagged CHD5 (PCC = PHD + Dual Chromodomain); for Array Heatmap signal (histone peptide microarray): sheet Array Heatmap, each array performed twice, total n = 4
Procedure, shortened: as §1

CHD5 (PPCC) = conditions: GST-tagged CHD5 (PPCC = Dual PHD + Dual Chromodomain); for Array Heatmap signal (histone peptide microarray): sheet Array Heatmap, each array performed twice, total n = 4
Procedure, shortened: as §1

DIDO1 = conditions: GST-tagged DIDO1; for Array Heatmap signal (histone peptide microarray): sheet Array Heatmap, each array performed twice, total n = 4
Procedure, shortened: as §1

DPF2 (PPC2W2) = conditions: GST-tagged DPF2 (PPC2W2 = Dual PHD + C2W2-type Zn-finger); for Array Heatmap signal (histone peptide microarray): sheet Array Heatmap, each array performed twice, total n = 4
Procedure, shortened: as §1

ING1 = conditions: GST-tagged ING1; for Array Heatmap signal (histone peptide microarray): sheet Array Heatmap, each array performed twice, total n = 4
Procedure, shortened: as §1

ING2 = conditions: GST-tagged ING2; for Array Heatmap signal (histone peptide microarray): sheet Array Heatmap, each array performed twice, total n = 4
Procedure, shortened: as §1

ING3 = conditions: GST-tagged ING3; for Array Heatmap signal (histone peptide microarray): sheet Array Heatmap, each array performed twice, total n = 4
Procedure, shortened: as §1

ING4 = conditions: GST-tagged ING4; for Array Heatmap signal (histone peptide microarray): sheet Array Heatmap, each array performed twice, total n = 4
Procedure, shortened: as §1

ING5 = conditions: GST-tagged ING5; for Array Heatmap signal (histone peptide microarray): sheet Array Heatmap, each array performed twice, total n = 4
Procedure, shortened: as §1

KDM4C (TTP) = conditions: GST-tagged KDM4C (TTP = Tandem Tudor domain + PHD); for Array Heatmap signal (histone peptide microarray): sheet Array Heatmap, each array performed twice, total n = 4
Procedure, shortened: as §1

KDM5A (1) = conditions: GST-tagged KDM5A (1); for Array Heatmap signal (histone peptide microarray): sheet Array Heatmap, each array performed twice, total n = 4
Procedure, shortened: as §1

KDM5A (3) = conditions: GST-tagged KDM5A (3); for Array Heatmap signal (histone peptide microarray): sheet Array Heatmap, each array performed twice, total n = 4
Procedure, shortened: as §1

KDM5B (1) = conditions: GST-tagged KDM5B (1); for Array Heatmap signal (histone peptide microarray): sheet Array Heatmap, each array performed twice, total n = 4
Procedure, shortened: as §1

KDM5B (3) = conditions: GST-tagged KDM5B (3); for Array Heatmap signal (histone peptide microarray): sheet Array Heatmap, each array performed twice, total n = 4
Procedure, shortened: as §1

KDM7A = conditions: GST-tagged KDM7A; for Array Heatmap signal (histone peptide microarray): sheet Array Heatmap, each array performed twice, total n = 4
Procedure, shortened: as §1

MLL5 = conditions: GST-tagged MLL5; for Array Heatmap signal (histone peptide microarray): sheet Array Heatmap, each array performed twice, total n = 4
Procedure, shortened: as §1

MORC3 (CW) = conditions: GST-tagged MORC3 (CW = CW-type Zn-finger); for Array Heatmap signal (histone peptide microarray): sheet Array Heatmap, each array performed twice, total n = 4
Procedure, shortened: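 A peptide microarray holding 293 synthetic histone peptides with individual or combinatorial modifications was probed with each GST-PHD protein at 0.5 μM. Values represent mean intensity (±SD) from four replicates.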

PHF13 = conditions: GST-tagged PHF13; for Array Heatmap signal (histone peptide microarray): sheet Array Heatmap, each array performed twice, total n = 4
Procedure, shortened: as §1

PHF21A = conditions: GST-tagged PHF21A; for Array Heatmap signal (histone peptide microarray): sheet Array Heatmap, each array performed twice, total n = 4
Procedure, shortened: as §1

PHF23 = conditions: GST-tagged PHF23; for Array Heatmap signal (histone peptide microarray): sheet Array Heatmap, each array performed twice, total n = 4
Procedure, shortened: as §1

PHF2 = conditions: GST-tagged PHF2; for Array Heatmap signal (histone peptide microarray): sheet Array Heatmap, each array performed twice, total n = 4
Procedure, shortened: as §1

PHF8 = conditions: GST-tagged PHF8; for Array Heatmap signal (histone peptide microarray): sheet Array Heatmap, each array performed twice, total n = 4
Procedure, shortened: as §1

PHRF1 (RP) = conditions: GST-tagged PHRF1 (RP); for Array Heatmap signal (histone peptide microarray): sheet Array Heatmap, each array performed twice, total n = 4
Procedure, shortened: as §1

RAG2 = conditions: GST-tagged RAG2; for Array Heatmap signal (histone peptide microarray): sheet Array Heatmap, each array performed twice, total n = 4
Procedure, shortened: as §1

SP140L = conditions: GST-tagged SP140L; for Array Heatmap signal (histone peptide microarray): sheet Array Heatmap, each array performed twice, total n = 4
Procedure, shortened: as §1

TAF3 = conditions: GST-tagged TAF3; for Array Heatmap signal (histone peptide microarray): sheet Array Heatmap, each array performed twice, total n = 4
Procedure, shortened: as §1

TRIM66 (PB) = conditions: GST-tagged TRIM66 (PB = PHD + Bromodomain); for Array Heatmap signal (histone peptide microarray): sheet Array Heatmap, each array performed twice, total n = 4
Procedure, shortened: as §1

[1] = histone peptide array, arrays performed twice, n of 4

## H3K4ac + K9ac + K14ac + K18ac: H3 1-20
AIRE (PP)
  Array Heatmap signal (histone peptide microarray): 0.3782
BAZ2B
  Array Heatmap signal (histone peptide microarray): 0.563
BPTF (PB)
  Array Heatmap signal (histone peptide microarray): 0.3593
CHD4 (PPCC)
  Array Heatmap signal (histone peptide microarray): 0.5829
CHD5 (PCC)
  Array Heatmap signal (histone peptide microarray): 0.7123
CHD5 (PPCC)
  Array Heatmap signal (histone peptide microarray): 0.5084
DIDO1
  Array Heatmap signal (histone peptide microarray): 0.7084
DPF2 (PPC2W2)
  Array Heatmap signal (histone peptide microarray): 0.6596
ING1
  Array Heatmap signal (histone peptide microarray): 0.5598
ING2
  Array Heatmap signal (histone peptide microarray): 0.6105
ING3
  Array Heatmap signal (histone peptide microarray): 0.4699
ING4
  Array Heatmap signal (histone peptide microarray): 0.4318
ING5
  Array Heatmap signal (histone peptide microarray): 0.3295
KDM4C (TTP)
  Array Heatmap signal (histone peptide microarray): 0.4292
KDM5A (1)
  Array Heatmap signal (histone peptide microarray): 0.4231
KDM5A (3)
  Array Heatmap signal (histone peptide microarray): 0.4281
KDM5B (1)
  Array Heatmap signal (histone peptide microarray): 0.573
KDM5B (3)
  Array Heatmap signal (histone peptide microarray): 0.4694
KDM7A
  Array Heatmap signal (histone peptide microarray): 0.3021
MLL5
  Array Heatmap signal (histone peptide microarray): 0.5536
MORC3 (CW)
  Array Heatmap signal (histone peptide microarray): 0.3581
PHF13
  Array Heatmap signal (histone peptide microarray): 0.5706
PHF21A
  Array Heatmap signal (histone peptide microarray): 0.4272
PHF23
  Array Heatmap signal (histone peptide microarray): 0.5552
PHF2
  Array Heatmap signal (histone peptide microarray): 0.6121
PHF8
  Array Heatmap signal (histone peptide microarray): 0.3207
PHRF1 (RP)
  Array Heatmap signal (histone peptide microarray): 0.4629
RAG2
  Array Heatmap signal (histone peptide microarray): 0.2412
SP140L
  Array Heatmap signal (histone peptide microarray): 0.3096
TAF3
  Array Heatmap signal (histone peptide microarray): 0.2581
TRIM66 (PB)
  Array Heatmap signal (histone peptide microarray): 0.6561

## H3K9ac + K14ac + K18ac: H3 1-20
AIRE (PP)
  Array Heatmap signal (histone peptide microarray): 0.4138
BAZ2B
  Array Heatmap signal (histone peptide microarray): 0.6427
BPTF (PB)
  Array Heatmap signal (histone peptide microarray): 0.3483
CHD4 (PPCC)
  Array Heatmap signal (histone peptide microarray): 0.6424
CHD5 (PCC)
  Array Heatmap signal (histone peptide microarray): 0.8362
CHD5 (PPCC)
  Array Heatmap signal (histone peptide microarray): 0.5238
DIDO1
  Array Heatmap signal (histone peptide microarray): 0.777
DPF2 (PPC2W2)
  Array Heatmap signal (histone peptide microarray): 0.8971
ING1
  Array Heatmap signal (histone peptide microarray): 0.5813
ING2
  Array Heatmap signal (histone peptide microarray): 0.62
ING3
  Array Heatmap signal (histone peptide microarray): 0.4687
ING4
  Array Heatmap signal (histone peptide microarray): 0.4438
ING5
  Array Heatmap signal (histone peptide microarray): 0.3256
KDM4C (TTP)
  Array Heatmap signal (histone peptide microarray): 0.4368
KDM5A (1)
  Array Heatmap signal (histone peptide microarray): 0.4668
KDM5A (3)
  Array Heatmap signal (histone peptide microarray): 0.5902
KDM5B (1)
  Array Heatmap signal (histone peptide microarray): 0.5879
KDM5B (3)
  Array Heatmap signal (histone peptide microarray): 0.4869
KDM7A
  Array Heatmap signal (histone peptide microarray): 0.3112
MLL5
  Array Heatmap signal (histone peptide microarray): 0.5367
MORC3 (CW)
  Array Heatmap signal (histone peptide microarray): 0.5442
PHF13
  Array Heatmap signal (histone peptide microarray): 0.5825
PHF21A
  Array Heatmap signal (histone peptide microarray): 0.4657
PHF23
  Array Heatmap signal (histone peptide microarray): 0.5614
PHF2
  Array Heatmap signal (histone peptide microarray): 0.5699
PHF8
  Array Heatmap signal (histone peptide microarray): 0.3679
PHRF1 (RP)
  Array Heatmap signal (histone peptide microarray): 0.8654
RAG2
  Array Heatmap signal (histone peptide microarray): 0.2782
SP140L
  Array Heatmap signal (histone peptide microarray): 0.346
TAF3
  Array Heatmap signal (histone peptide microarray): 0.2816
TRIM66 (PB)
  Array Heatmap signal (histone peptide microarray): 0.7029

## H4K5ac + K12ac: H4 1-23
AIRE (PP); [1]
  Array Heatmap signal, AIRE (PP): 0.3771
BAZ2B; [1]
  Array Heatmap signal, BAZ2B: 0.4409
BPTF (PB); [1]
  Array Heatmap signal, BPTF (PB): 0.414
CHD4 (PPCC); [1]
  Array Heatmap signal, CHD4 (PPCC): 0.585
CHD5 (PCC); [1]
  Array Heatmap signal, CHD5 (PCC): 0.8553
CHD5 (PPCC); [1]
  Array Heatmap signal, CHD5 (PPCC): 0.532
DIDO1; [1]
  Array Heatmap signal, DIDO1: 0.8034
DPF2 (PPC2W2); [1]
  Array Heatmap signal, DPF2 (PPC2W2): 0.7316
ING1; [1]
  Array Heatmap signal, ING1: 0.5734
ING2; [1]
  Array Heatmap signal, ING2: 0.648
ING3; [1]
  Array Heatmap signal, ING3: 0.4957
ING4; [1]
  Array Heatmap signal, ING4: 0.4639
ING5; [1]
  Array Heatmap signal, ING5: 0.3605
KDM4C (TTP); [1]
  Array Heatmap signal, KDM4C (TTP): 0.4758
KDM5A (1); [1]
  Array Heatmap signal, KDM5A (1): 0.4472
KDM5A (3); [1]
  Array Heatmap signal, KDM5A (3): 0.5097
KDM5B (1); [1]
  Array Heatmap signal, KDM5B (1): 0.6768
KDM5B (3); [1]
  Array Heatmap signal, KDM5B (3): 0.4813
KDM7A; [1]
  Array Heatmap signal, KDM7A: 0.3306
MLL5; [1]
  Array Heatmap signal, MLL5: 0.6047
MORC3 (CW); [1]
  Array Heatmap signal, MORC3 (CW): 0.4134
PHF13; [1]
  Array Heatmap signal, PHF13: 0.6317
PHF21A; [1]
  Array Heatmap signal, PHF21A: 0.4826
PHF23; [1]
  Array Heatmap signal, PHF23: 0.5561
PHF2; [1]
  Array Heatmap signal, PHF2: 0.5746
PHF8; [1]
  Array Heatmap signal, PHF8: 0.3854
PHRF1 (RP); [1]
  Array Heatmap signal, PHRF1 (RP): 0.4375
RAG2; [1]
  Array Heatmap signal, RAG2: 0.3116
SP140L; [1]
  Array Heatmap signal, SP140L: 0.3768
TAF3; [1]
  Array Heatmap signal, TAF3: 0.366
TRIM66 (PB); [1]
  Array Heatmap signal, TRIM66 (PB): 0.6577
